Read-outs that look alike come from different tables or passages of the source.
How the values were obtained:
[1] = tested on: NCI-H929 tumor xenografts; details: days 34, 37
Source text: A product is considered to be active if log10 cell kill is greater than or equal to 0.7. A product is considered to be very active if log10 cell kill is greater than or equal to 2.8.
The combination will manifest therapeutic synergy when the log10 cell kill is greater than the value of the log10 cell kill of the best constituent administered alone at its maximum tolerated dose or at its highest dose tested.
The animals subjected to the experiment, generally mice, are subcutaneously grafted unilaterally or bilaterally with tumor cells or fragment on day 0. The animals bearing tumors are randomized based on their tumor size before being subjected to the various treatments and controls. Chemotherapy begins when tumors have reached a predetermined size after grafting, depending on the type of tumor, and the animals are observed every day. […] The groups are then weighed once or twice a week until the end of the trial.
The tumors are measured 1 to 5 times a week, depending on the tumor doubling time, until the tumor reaches approximately 750 mg, or until the animal dies (if this occurs before the tumor reaches 750 mg). The animals are necropsied immediately after euthanasia or death.
Hu38SB19 and Bortezomib treatments were started thirty four days after cell inoculation and doses were calculated based on individual animal body weights determined from the last measurement taken before dosing. Administration of PBS and hu38SB19 antibody was carried out through intraperitoneal (IP) injection and bortezomib by intravenous (IV) injection via the tail vein, using a 1.0 mL syringe fitted with a 27 gauge, ½ inch needle.
Thirty-three days after tumor cell inoculation, sixty-four mice were randomized into 8 groups (n=8) by tumor volume. […] Mice in each group were identified by a puncture in the ear.
Treatment groups included PBS control (200 μL/mouse/treatment), hu38SB19 antibody (5.0 mg/kg/treatment), bortezomib (1.0, 0.6 and 0.4 mg/kg/treatment) and three combination groups with hu38SB19 (5.0 mg/kg/treatment) and bortezomib (1.0, 0.6 and 0.4 mg/kg/treatment). PBS, hu38SB19 and bortezomib were administered twice per week for one week (days 34 and 37 for a total of 2 treatments). Treatments were started on day 34 post inoculation of tumor cells.
Tumor volumes were measured one to two times weekly in three dimensions using a caliper. The tumor volume was expressed in mm^3 (or mg) using the formula: V=Length×Width×Height×½.
Tumor Free Survivors (TFS): correspond to complete regression below the limit of palpation (63 mg) for the entire duration of the study (>100 days post last treatment).

[2] = Body weight loss as index of test agent toxicity in NCI-H929 tumor-bearing mice; type: in vivo, SCID mice; details: days 34, 37
Source text: The animals subjected to the experiment, generally mice, are subcutaneously grafted unilaterally or bilaterally with tumor cells or fragment on day 0. The animals bearing tumors are randomized based on their tumor size before being subjected to the various treatments and controls. Chemotherapy begins when tumors have reached a predetermined size after grafting, depending on the type of tumor, and the animals are observed every day. The different animal groups are weighed daily during treatment until the maximum weight loss is reached and subsequent full weight recovery has occurred. The groups are then weighed once or twice a week until the end of the trial.
Body weights were measured twice per week as a rough index of test agent toxicity. Tumor volume and body weight were determined and recorded by Labcat software.
Toxicity was declared at dosages inducing 20% body weight loss or 10% drug death, […]

[3] = Bortezomib IV 0.4 mg/kg/injection (total 0.8)
[4] = Bortezomib IV 0.4 mg/kg/injection (total 0.8), 0.4 mg/kg
[5] = Bortezomib IV 0.4 mg/kg/injection (total 0.8), listed as bortezomib, 0.4 mg/kg
[6] = Bortezomib IV 0.6 mg/kg/injection (total 1.2)
[7] = Bortezomib IV 0.6 mg/kg/injection (total 1.2), 0.6 mg/kg
[8] = Bortezomib IV 0.6 mg/kg/injection (total 1.2), listed as bortezomib, 0.6 mg/kg
[9] = Bortezomib IV 1.0 mg/kg/injection (total 2.0)
[10] = Bortezomib IV 1.0 mg/kg/injection (total 2.0), 1 mg/kg
[11] = Bortezomib IV 1.0 mg/kg/injection (total 2.0), listed as bortezomib, 1 mg/kg

In the case of CC(C)C[C@H](NC(=O)[C@H](Cc1ccccc1)NC(=O)c1cnccn1)B(O)O [Bortezomib, [(1R)-3-methyl-1-({(2S)-3-phenyl-2-[(pyrazin-2-ylcarbonyl)amino]propanoyl}amino)butyl]boronic acid], the “T-C in days (tumor growth delay)” value [1, 3] is reported as 7 days, the “Time for median tumor to reach 750 mg” value [1, 3] is reported as 69 days and the log cell kill [1, 3] is reported as 0.1. The “% T/C” value [1, 4] was 74%, the “Comments (anti-tumor activity rating)” value [1, 4] was “Inactive” and the “TFS at day 176 (tumor free survivors)” value [1, 4] was 1/8. For the same molecule, the “% T/C” value [1, 5] was 45%, the “Comments (anti-tumor activity rating)” value [1, 5] was “inactive” and the “TFS at day 176 (tumor free survivors)” value [1, 5] was “single TFS”. The “T-C in days (tumor growth delay)” value [1, 6] was 18 days, the “Time for median tumor to reach 750 mg” value [1, 6] was 80 days and the log cell kill [1, 6] was 0.3. The “% T/C” value [1, 7] was 45%, the “Comments (anti-tumor activity rating)” value [1, 7] was “Inactive” and the “TFS at day 176 (tumor free survivors)” value [1, 7] was 0/8. For the same molecule, the “% T/C” value [1, 8] was 75%, the “Comments (anti-tumor activity rating)” value [1, 8] was “inactive” and the “TFS at day 176 (tumor free survivors)” value [1, 8] was “No TFS”. For the same molecule, the “% T/C” value [1, 9] was 15%, the “T-C in days (tumor growth delay)” value [1, 9] was 37 days and the “Time for median tumor to reach 750 mg” value [1, 9] was 99 days. For the same molecule, the log cell kill [1, 9] was 0.6, the “Comments (anti-tumor activity rating)” value [1, 10] was “Active” and the “TFS at day 176 (tumor free survivors)” value [1, 10] was 2/8. The “Comments (anti-tumor activity rating)” value [1, 11] was “somewhat active”, the “TFS at day 176 (tumor free survivors)” value [1, 11] was 2 and the “Average body weight loss in % per mouse at nadir (day of nadir)” value (shortened to “Average body weight loss in % per mouse”) ([2]; Bortezomib IV 0.4 mg/kg/injection (total 0.8), nadir d36) was 0.8 (d36) %. For the same molecule, the “Average body weight loss in % per mouse” value ([2]; Bortezomib IV 0.6 mg/kg/injection (total 1.2), nadir d40) was 0.6 (d40) % and the “Average body weight loss in % per mouse” value ([2]; Bortezomib IV 1.0 mg/kg/injection (total 2.0), nadir d36) was 7.0 (d36) %.

From patent publication US9314522B2, “Antitumors combinations containing antibodies recognizing specifically CD38 and bortezomib” (Sanofi, priority 2010, dated 2016)
